Test results from PMC3514016 (The international journal of biochemistry & cell biology, 2009).
Where a SMILES comes first, the peptide text is derived from it. The star is where a group is joined. AMC = Cc1cc(=O)oc2cc(N*)ccc12; Cbz = O=C(OCc1ccccc1)*

Biological target: Human CatB (human wild-type cathepsin B) (Homo sapiens, UniProt P07858, S194A)
Settings: read-out: Human CatB / Km; 37 °C; pH not stated for the Km assay

Structure (SMILES)	Km [µM]
Cc1cc(=O)oc2cc(NC(=O)[C@H](CCCNC(=N)N)NC(=O)[C@H](CCCNC(=N)N)NC(=O)OCc3ccccc3)ccc12 [Z-Arg-Arg-AMC] (Cbz-Arg-Arg-{AMC})	100
Cc1cc(=O)oc2cc(NC(=O)[C@H](CCCNC(=N)N)NC(=O)[C@H](Cc3ccccc3)NC(=O)OCc3ccccc3)ccc12 [Z-Phe-Arg-AMC] (Cbz-Phe-Arg-{AMC})	47
